Experimental findings from patent US20180203025A1, “HDL THERAPY MARKERS” (Cerenis Therapeutics Holding SA, priority 2014, published 2018) are described below.

One data set in a line: CHI SQUARE tolerability. Type of data set: in vivo, human. As to conditions: 3, 6, and 12 mg/kg. The source says:
(§1) 504 subjects presenting with acute chest pain or other angina equivalent symptoms, indicative of a diagnosis of ST segment elevation myocardial infarction, non-ST elevation myocardial infarction or unstable angina were enrolled. To be eligible, subjects must have angiographic evidence of coronary artery disease as defined by at least one lesion in any of the three major native coronary arteries that has >20% reduction in lumen diameter by angiographic visual estimation or prior history of percutaneous coronary intervention (“PCI”). The target vessel for PCI was not the target coronary artery for research IVUS, and any vessel with previous PCI could not be used as the target coronary artery.

Data set [1] concerns ABCA1 in mouse ligatured carotids. As to the kind of experiment: Western blot of ABCA1 expression in ligatured carotids. The class given is in vivo. How it is done: Ligatured carotids previously extracted with chloroform:methanol were solubilized in NAOH 0.1N (100 μL/carotid). The solution was briefly sonicated and centrifuged at 15,000×g for 10 minutes. The protein concentration was determined with Bradford assay and 40 μg of sample were loaded on SDS-PAGE. The ABCA1 expression (ab7360—dilution 1/1000) was quantified using imageJ® software.

In data set [2] the test system is total plaque volume in a 30 mm segment of the target coronary artery. Description: CHI SQUARE phase II trial, IVUS first approach. The class given is in vivo, human.
Source text: as §1
The study design is illustrated in FIG. 1. The primary endpoint was the nominal change in total plaque volume in a 30 mm segment of the target coronary artery assessed by 3 dimensional IVUS (intra-vascular ultrasound). The key secondary endpoints were % change in plaque volume and change in % atheroma volume in the target 30 mm segment, the change in total vessel volume in the target 30 mm segment, and changes in plaque, lumen and total vessel volumes from baseline in the least and most diseased 5 mm segments. Morbidity and mortality were exploratory endpoints.
Mean total atheroma volume at baseline was 155.24±67.99 mm^3. The adjusted means for change in total atheroma volume were −2.71, −3.13, −1.50 and −3.05 mm^3 in the placebo, CER-001 3 mg/kg, CER-001 6 mg/kg and CER-001 12 mg/kg groups, respectively (p=0.81 for the prespecified primary analysis of 12 mg/kg versus placebo). There were also no differences compared to placebo for the CER-001 6 mg/kg (nominal p=0.45) and 3 mg/kg (nominal p=0.77) groups. The change in percent atheroma volume was similar among all study groups (0.02, −0.02, 0.01 and 0.19% in the placebo, CER-001 3 mg/kg (p=0.86), CER-001 6 mg/kg (p=0.95) and CER-001 12 mg/kg (p=0.53) groups (nominal p-values versus placebo).
In contrast to the “walk-along” approach discussed below, frame pairs were individually selected for optimum readability. Frames were selected based upon absence of echogenicity (calcium) and side branches. A maximum of 31 frames were selected over a 30 mm segment, excluding the benefit of pull-backs longer than 30 mm. No pre-defined criteria were used to select the 31 frames for inclusion in analysis set when >31 frames available.

The nature of data set [3]: Plasma cholesterol mobilization in apoE−/− mice. Type of data set: in vivo, mouse. As to the method:
The formulation was injected in the retro-orbital vein (50 μL/mouse) of mice anaesthetized with isoflurane, once every 2 days for 8 injections. The dose administered was based on the mean of mice bodyweight in each cage. The compounds were injected at 10 AM every day. For blood sampling, mice fasted overnight were sampled once at the indicated dose: (1) at predose (at 9 AM) by retro-orbital withdrawal: 24 hours before the first injection/day of surgery; (2) at postdose (at 9 AM) by retro-orbital withdrawal: 24 hours after the last injection; and (3) at t=0 (9 AM) and the indicated time points after the 5th injection by caudal withdrawal. Immediately after collection, blood samples were kept at ca. +4° C. to avoid alteration of the blood sample. Blood specimens were centrifuged (800×g for 10 minutes at +4° C.) and plasma was saved for future analysis.
Add in each tube cholesterol standards (2 g/L): 0/0.625/1.25/1.875/2.5/3.75/5 μl. Centrifuge plasma samples at 12,000×g for 1 minute. Add 0.5 ml of the reconstituted buffer to each tube (standard and samples), vortex and incubate 5 minutes at 37° C. Transfer 150 μl from each tube to 2 different wells in a 96 well plate. Read absorbance at 500 nm.
Add in each tube cholesterol standards (2 g/L): 0/0.625/1.25/1.875/2.5/3.75/5 μl. Centrifuge plasma samples at 12,000×g for 1 minute. Add 0.5 ml of reconstituted buffer to each tube (standard and samples), vortex and incubate 5 minutes at 37° C. Transfer 150 μl from each tube to 2 different wells in a 96 well plate. Read absorbance at 500 nm.
This study examined the consequences of CER-001 administration on the lipoprotein profile in apoE^−/− mice fed with high fat diet. Blood was collected and analyzed at different time points after the 5th infusion. Plasma pre-dose (before the first injection) and plasma post-dose (24h after the last injection) were also compared. Plasma was analyzed for total and unesterified cholesterol and human ApoA-I contents.
Total and unesterified cholesterol concentrations were determined according to the procotols of Sections 9.2.5 and 9.2.6, respectively. Cholesterol ester concentrations are determined after subtracted unesterified cholesterol from total cholesterol. The mobilization of cholesterol was determined on 12 mice per group after the 5th administration (1 hour before injection; 1 h, 2h, 4h and 24h after injection). The animals were fasted overnight.

As to “CER-001: engineered recombinant human apolipoprotein A-I HDL with sphingomyelin and DPPG; protein-to-phospholipid ratio 1:2.7, 97% Sph and 3% DPPG”, in “CHI SQUARE tolerability”, the tolerability entry is reported as “well-tolerated overall” and the “toxicities in laboratory parameters” value was “no apparent dose-related toxicities in laboratory parameters”. Also, the “carotid ABCA1 expression” value in data set [1] (5 mg/kg) is “did not affect the ABCA1 expression”. The “carotid ABCA1 content” value in data set [1] (50 mg/kg) is listed as “decrease”. Besides, in data set [2] (3 mg/kg), the “adjusted mean change in total atheroma volume” value (“adjusted mean change” for short) is recorded as −3.13 mm^3 and the “change in percent atheroma volume” value is on record as −0.02%. Further, in data set [2] (6 mg/kg), the “adjusted mean change” value was −1.50 mm^3 and the “change in percent atheroma volume” value is reported as 0.01%. Moreover, in data set [2] (12 mg/kg), the “adjusted mean change” value was −3.05 mm^3 and the “change in percent atheroma volume” value is 0.19%. For the same substance, the “plasma unesterified cholesterol concentration” value in data set [3] (50 mg/kg, 2 and 4 hours after infusion) is “seemed to increase the plasma unesterified cholesterol concentration”. Besides, in data set [3] (24h after the last injection), the “post-dose total and unesterified cholesterol concentrations compared to HDL3 treated mice” value is given as “two times higher”. Besides, the “doses increasing the cholesterol concentration in plasma compared to placebo” value in data set [3] (after 8 injections) is on record as “above 10 mg/kg”. In data set [3] (after the 5th infusion), the “mobilization of unesterified cholesterol” value is on record as “No significant changes” and the “total plasma cholesterol mobilization” value is reported as “No significant changes”.
